Experimental findings from patent publication US8946283B2, “Composition for preventing or treating obesity, dyslipidemia, fatty liver or diabetes containing indole-3-carbinol derivative as active ingredient” (Industry-Academic Cooperation Foundation, Yonsei University, priority 2011, dated 2015) are described below.

Assay [1] in a line: Biochemical analysis of blood (plasma lipids) of mice fed high-fat test diet. The note with it: 0.05% in high-fat diet, 10 weeks. Type of assay: in vivo, C57BL/6J mice. The protocol:
(§1) The obesity-inducing control diet used in the test was high-fat diet (HFD: 40% fat calorie, 17 g lard+3% corn oil/100 g diet). Diets supplemented with indole-3-carbinol derivatives (B525 and B528) had the same composition as HFD, except that each derivative was included at 0.05% (see Table 2). The diabetic drug metformin was added at 0.1% or the hyperlipidemic drug atorvastatin was added at 0.01% to HFD as controls. The normal diet group (Chow) was fed with commercially available rodent chow.
(§2) 56 5-week-old male C57BL/6J mice (Orient, Korea) were accustomed to the laboratory environment for 1 week while feeding solid feed. Then, they were randomly divided into normal diet, high-fat diet and test groups (n=8/group) and bred for a total of 10 weeks. The diet was given between 10 and 11 a.m. every day together with water. Food intake was measured every day and body weight was measured once a week. In order to avoid transient body weight increase after feed intake, body weight was measured 2 hours after removing the feed. After fasting the test animal for at least 12 hours and anesthetizing with diethyl ether, blood, liver and visceral fat (epididymal fat, perirenal fat, mesenteric fat and retroperitoneal fat) were taken and weighed after washing with 0.1 M PBS (pH 7.4). Blood taken from the abdominal aorta was centrifuged at 1000×g for 15 minutes to separate the plasma.
After 10 weeks of breeding, total cholesterol, triglyceride and glucose levels in the plasma and lipid level in the liver tissue were measured as follows. Total cholesterol, triglyceride and free fatty acid levels in the plasma were measured twice for each using a commercially available kit (Bio Clinical System).

Assay [2] is described as follows: Fasting blood sugar and oral glucose tolerance test in mice fed high-fat test diet. Type of assay: in vivo, C57BL/6J mice. On the procedure: as §1, §2
On week 8 after feeding the test diet, oral glucose tolerance test was performed for all the groups. After fasting the mouse for 16 hours, glucose (2 g glucose/10 mL distilled water/kg body weight) was orally administered. Before and 15, 30, 60 and 120 minutes after the oral administration, the tail end was cut by about […] and blood was taken. Glucose level was measured using a glucose meter.

Assay [3] in a line: Liver weight and lipid level in liver tissue of mice fed high-fat test diet. Type of assay: in vivo, C57BL/6J mice. Particulars: 0.05% in high-fat diet, 10 weeks. On the procedure: as §1, §2
Lipids were extracted from the liver tissue according to Folch et al.'s method Folch J et al., J Biol. Chem. 226: 497-509 (1957)). After adding 1 mL of distilled water to 0.25 g of liver tissue, the liver tissue was homogenized using a Polytron homogenizer (IKA-Werke GmbH & Co., Ultra-Turrax, Staufen, Germany). After adding 5 mL of chloroform:methanol solution (2:1, v/v) to the homogenate and mixing well, the mixture was centrifuged at 1000×g for 10 minutes. After adding 2 mL of chloroform:methanol solution (2:1, v/v) again to the supernatant, the same procedure was repeated to completely separate the lipid components of the liver. After adding 3 mL of chloroform:methanol:0.05% CaCl2 (3:48:47, v/v/v) solution to the remaining pellets and mixing well for 1 minute, followed by centrifugation at 1000×g for 10 minutes, the resulting pellets were completely dried with nitrogen gas. The dried lipids were dissolved in 1 mL of methanol and then analyzed.
The same kit (Bio Clinical System) as that used for the plasma analysis was used to measure the triglyceride and cholesterol levels of the liver tissue.

Assay [4] is described as follows: Body weight gain and visceral fat weight of mice fed high-fat test diet. The format is in vivo, C57BL/6J mice. The note with it: 0.05% in high-fat diet, 10 weeks. The protocol: as §1, §2
In another assay the test system is 3T3-L1 cells. Kind of assay: Inhibition of adipocyte differentiation, Oil Red O staining of triglyceride. Type of assay: cell-based, mouse. On the procedure: Mouse adipocyte cell line (3T3-L1) was used to investigate the effect of various indole-3-carbinol derivatives on differentiation and growth of adipocytes. The preadipocytes, 3T3-L1 cells, were seeded on a 12-well plate and cultured to confluency using Dulbecco's modified Eagle's medium (DMEM) containing 1% penicillin-streptomycin, 1% nonessential amino acid and 10% fatal bovine serum (FBS), in a 5% CO2 incubator at 37° C. The 3T3-L1 cells grown to confluency were cultured for 2 days in MDI medium containing 0.5 mM isobutylmethylxanthine, 1 μM dexamethasone and 1 μg/mL insulin to differentiate them into adipocytes. Then, the cells were further cultivated in DMEM containing 1 μg/mL insulin to differentiate them into mature adipocytes. The cells were further cultured for 10 more days while replacing DMEM every other day to obtain fully differentiated adipocytes.
From the first day when MDI was added to the 3T3-L1 cells, 16 indole-3-carbinol derivative compounds were treated at concentrations of 0.1, 1, 10, 50 and 100 μM with 2-day intervals. The structure and molecular weight of the 16 indole-3-carbinol derivatives (B518, B521, B525, B528, B538, B540, B542, B544, B545, B546, B547, B549, B551, B556, B558 and B561) are described in Table 1. The derivative compounds were used after being dissolved in DMSO. Only DMSO was added to the negative control group.
After culturing for a total of 14 days, the medium was removed when the differentiation was completed and lipid droplets in the differentiated adipocytes were stained. For this, the cells were washed twice with phosphate buffered saline (PBS), fixed in 10% buffered neutral formalin (BNF) for 1 hour, washed once again with PBS, stained for 1 hour by adding 1 mL of Oil Red O dye, which specifically stains fat red, on the 12-well plate, and washed twice with distilled water. In order to measure the level of triglyceride contained in the differentiated 3T3-L1 cells, the stained lipid droplets were dissolved in 1 mL of isobutanol and optical density (OD) value was measured at 600 nm.

Turning to `CCN1C(=O)C(O)(c2c(C)[nH]c3ccccc23)c2cc(Br)ccc21` (centres unmarked) [B528, 5′-Bromo-1′-ethyl-3′-hydroxy-2-methyl-1′,3′-dihydro-1H,2′H-3,3′-biindol-2′-one], in assay [1], the “reduction of arteriosclerotic index in blood plasma as compared to HFD” value came to 35%, the “reduction of total cholesterol level in blood plasma as compared to HFD” value stood at 21% and the “reduction of triglyceride level in blood plasma as compared to HFD” value is 38%. Also, in assay [2] (0.05% in high-fat diet, 8 weeks), the “reduction of fasting blood sugar level as compared to HFD” value came out at 39%. In assay [2] (OGTT, 15, 30, 60 and 120 minutes, week 8), the “blood glucose level after oral glucose as compared to HFD” value is “decreased blood glucose level at all times”. Moreover, the “change of blood glucose level after oral glucose as compared to HFD” value in assay [2] (OGTT, after 60 minutes, week 8) is −29%. For the same compound, in assay [2] (OGTT, week 8), the “area under the curve (AUC) of the blood glucose level as compared to HFD” value was “decreased significantly”; the “effect on oral glucose tolerance compared to controls metformin and atorvastatin” value is “excellent effect of improving oral glucose tolerance, better than the controls metformin and atorvastatin”. Moreover, in assay [3], the “appearance of liver tissue as compared to HFD” value was “smaller and darker liver tissue”; the “decrease of cholesterol level in liver tissue as compared to HFD” value came out at 28%; the “decrease of liver weight as compared to HFD” value was found to be 31%; the “decrease of triglyceride level in liver tissue as compared to HFD” value came out at 34%. For the same compound, in assay [4], the “decrease of body weight gain as compared to HFD” value is 30%; the “reduction of total visceral fat weight as compared to HFD” value was 26%; the “weight of epididymal fat, perirenal fat, mesenteric fat and retroperitoneal fat as compared to HFD” value is “significantly reduced”. Further, the “differentiation of the preadipocytes 3T3L1” value in the assay with 3T3-L1 cells (0.1, 1, 10, 50 and 100 μM, 14 days, vs DMSO control) is listed as “reduced the differentiation of the preadipocytes 3T3L1 in a concentration-dependent manner”. Further, the “triglyceride accumulation in cells” value in the assay with 3T3-L1 cells (3T3-L1 cells, FIGS. 1-3) is listed as “effectively reduce triglyceride accumulation in cells”.
